Data set [1] has as its system NIH3T3 cells. The data set is described as follows: 5-FU-induced apoptosis (Annexin V, flow cytometry) in NIH3T3 cells. Conditions: for 5-FU apoptotic rate after transfection: NIH3T3, transfected 24 hours then 5-FU 48 hours (FIG. 10A), control 28-30%; for percent of apoptosis induced by 5-FU after transfection: parental NIH3T3, transfected 24 hrs then 5-FU 48 hrs, control 28%. The class given is cell-based. As to the method:
Apoptosis Assay. Cells were collected by trypsinization, washed in wash buffer and stained with Annexin V and 7-AAD according to manufacturer's recommendation (PharMingen, San Diego, Calif.). Data acquisition and analysis was performed by the Flow Cytometry Core Facility at the H. Lee Moffitt Cancer Center (Tampa, Fla.). All the samples were performed in duplicate and a representative of 3 independent experiments were reported here.
(In general: Flow cytometry measures light scatter and fluorescence of single cells or particles in a stream.)

Data set [2] relates to NIH3T3 cells. Briefly: Focus formation assay in oncogene-transfected NIH3T3 cells. The format is cell-based. More on the design: inhibition of focus formation: concentration or dose not given beside the values. The following applies: for # of foci formed: 4 weeks. As to the method:
Focus Formation Assay. NIH3T3 cells were seeded into 60-mm plates (1×10^6 cell/per plate) one day prior to gene transfection. […] Two days after transfection, the cells were seeded into 60-mm plates at a density of 2.5×10^3/per plate, and maintained in DMEM medium containing 1.5% CBS. The medium was changed every 3 days. 3-4 weeks later the cells were washed once with PBS and once with PBS/methanol (1:1), then washed with fresh anhydrous methanol and covered with crystal violet stain for 1 min at room temperature. Finally, the stain was displaced with water. The focus formation assay for A-549 cells was similarly performed as above except that following the transfection the cells were cultured in DMEM complete medium containing 400 μg/ml of geneticin (G418, […], Inc.). 3 weeks later, the cells were fixed with anhydrous methanol and stained with crystal violet; the plates were photographed. All the samples were performed in triplicate and a representative of 3 independent experiments was reported in the figure(s) and averages±standard deviation reported in the table.

The test system of data set [3] is NIH3T3 cells. Briefly: Anchorage-independent growth (soft agar) assay in NIH3T3 cells. The following applies: 5 weeks. The format is cell-based. As to the method:
Anchorage-independent Growth Assay. NIH3T3 cells were similarly transfected as above. The cells were trypsinized, and 2.5×10^3 cells were suspended in triplicate in top soft agar layer (DMEM complete medium containing 0.35% agar) and seeded into 60-mm plates pre-coated by a 3-mm layer of lower agar (DMEM complete medium containing 0.7% agar). The cells were fed every 5 days for 5-6 weeks and finally stained with MTT (SIGMA). All the experiments were performed in triplicate and a representative of 3 independent experiments was reported in the figure(s) and averages±standard deviation in the table.

Another data set deals with A-549 cells. Briefly: Cell proliferation, A-549. The format is cell-based, human. Conditions: A-549, 0-96 hours. On the procedure:
Cell Proliferation. Cells were collected and examined for cell number by trypan blue exclusion and hemocytometer counting under microscope at 0 h, 24 h, 48 h, 72 h and 96 h. All the samples were performed in triplicate and the averages of 3 independent experiments were reported.

For a further data set, the system named is H-Ras/NIH3T3 cells. Briefly: Anoikis assay in H-Ras-transformed NIH3T3 cells. The class given is cell-based. The following applies: H-Ras-transformed NIH3T3, poly-HEMA plates. On the procedure:
Anoikis Assay. Cells were collected by trypsinization, washed twice with PBS, and re-suspended in serum-free medium containing 0.5% BSA; 5.0×10^5 cells were then seeded in triplicates into 60-mm plates pre-coated with poly(2-hydroxyethylmethacrylate) (poly-HEMA, SIGMA) according to the data sheet of the agents. 24 hrs later the cellular viability was determined by trypan blue exclusion.

Data set [4] deals with NIH3T3 cells. Briefly: Anoikis assay in transfected NIH3T3 cells. The format is cell-based. Conditions: transfected NIH3T3, poly-HEMA plates, 12 or 24 hours, vs pcDNA3 (FIG. 10B). On the procedure:
Parental NIH3T3 cells (FIG. 10A) were transiently transfected with pcDNA3 vector, HRas61L, or Akt in the presence or absence of RhoA, RhoB, or pcDNA3 for 36 hours. The cells were then split and cultured in DMEM medium containing 2 μM 5-FU for another 48 hours. The cells were then examined for their susceptibility to 5-FU-induced apoptosis by Annexin V labeling and flow cytometry apoptosis assays as described in the Materials and Methods section. 36 hours after the transfection, a fraction of the cells from FIG. 10A were washed and re-suspended in serum-free medium and seeded into the pre-coated plates and examined for viability at different time points by Annex V and 7-AAD labeling, as shown in FIG. 10B. In FIG. 10B, the bars at each time point (0, 12, 24 hrs), left-to-right, correspond to PCD, H-Ras, AKT, RhoA, RhoB, Akt+RhoA, and Akt+RhoB, respectively. B16-F10 melanoma cells were transiently transfected with pcDNA3 vector, pcDNA-RhoA or pcDNA-RhoB; 20 hours later, the cells were examined for gene delivery by Western Blotting with anti-HA, as shown in FIG. 10C. 5×10^5 of the cells from FIG. 10A were injected into the tail veins of C57/B16 mice. The numbers of metastatic nodules per mouse lung represent an average±standard error from 5 mice per group. […]
Anoikis Assay. […] 24 hrs later the cellular viability was determined by trypan blue exclusion.

Data set [5] concerns NIH3T3 cells. The data set is described as follows: Wound healing migration assay in NIH3T3 cells. The class given is cell-based. The following applies: NIH3T3, 24 hours after wounding (FIG. 8D). As to the method: Parental NIH3T3 (FIG. 8A) were transiently transfected with pcDNA3 vector control, H-Ras61L, CA-PI3K, or CA-Akt in the presence or absence of RhoA or RhoB or pcDNA3 for 36 hours. The cells were then split and cultured for another 4 weeks. The plates were examined for focus formation by staining. H-Ras/3T3 cells (FIG. 8B) and PANC-1 cells (FIG. 8C) were transiently transfected with pcDNA3 vector control, CA-Akt, or WT-Akt in the presence or absence of RhoA, RhoB, or pcDNA3 for 36 hours. The cells were then split and analyzed for their migration capabilities through collagen type I coated transfilters as described in the Materials and Methods section. NIH3T3 cells (FIGS. 8D and 8E) were transiently transfected with pcDNA3 vector control, H-Ras61L, CA-Akt, or WT-Akt in the presence or absence of RhoA, RhoB, or pcDNA3 for 36 hours. The monolayers were then scratched with a 20 μl pipette tip and micro-photographed at the time points indicated for analyzing their capability to migrate into and fill the wounded area.
The ability of RhoB to inhibit cancer cell migration was further confirmed in a different assay where cells are induced to migrate by physical wounding of cells plated on fibronectin pre-coated plates.

Consider 3 molecules from patent US7629310B2, “RhoB as a suppressor of cancer cell growth, cell transformation, and metastasis” (University of South Florida, priority 2000, dated 2009).

Values joined by “and” are separate entries in the source; they are usually repeats but may differ in a detail not shown here. Equal values may be shown once.

With `O=c1[nH]cc(F)c(=O)[nH]1` [5-FU, 5-fluorouracil], the apoptosis was 28-30% in the data set with NIH3T3 cells [1] (NIH3T3, 5-FU 48 hours (FIG. 10A)) and 27-32% in the data set with NIH3T3 cells [1] (parental NIH3T3, 5-FU 2.0 μM 48 hrs (FIG. 4B)).

As to “RhoB: low molecular weight GTPase; wild-type RhoB subcloned into HA-tagged pcDNA3 and ectopically expressed by transfection”, in the data set on NIH3T3 cells [2] (co-transfection with H-Ras61L, CA-PI3K or CA-Akt, 4 weeks (FIG. 8A)), the “colony (focus) formation” value is “significant inhibition of colony formation”. In addition, the “inhibition of focus formation” value was found to be 56% in the data set with NIH3T3 cells [2] (focus formation by EGFR); 59% with NIH3T3 cells [2] (focus formation by ErbB2); 62% in the data set with NIH3T3 cells [2] (focus formation by H-Ras); 61% in the data set on NIH3T3 cells [2] (focus formation by K-Ras); 39% in the data set on NIH3T3 cells [2] (focus formation by N-Ras); 15% in the data set on NIH3T3 cells [2] (v-Src transformation). Also, the “# of foci formed” value stood at 17 ± 3 in the data set on NIH3T3 cells [2] (oncogene transfected: EGFR); 19 ± 4 in the data set with NIH3T3 cells [2] (oncogene transfected: ErbB2); 18 ± 3 in the data set with NIH3T3 cells [2] (oncogene transfected: H-Ras); 16 ± 4 with NIH3T3 cells [2] (oncogene transfected: K-Ras); 22 ± 3 in the data set on NIH3T3 cells [2] (oncogene transfected: N-Ras); 26 ± 6 with NIH3T3 cells [2] (oncogene transfected: v-Src). Further, the “# of soft agar colonies” value is 21 and 21 ± 3 in the data set on NIH3T3 cells [3] (oncogene: H-Ras); 18 and 18 ± 5 with NIH3T3 cells [3] (oncogene: K-Ras); 26 and 26 ± 7 in the data set on NIH3T3 cells [3] (oncogene: N-Ras). Also, the growth rate result with A-549 cells is “inhibited the growth rate”. Besides, the “5-FU apoptotic rate after transfection” value in the data set with NIH3T3 cells [1] was “enhanced”. Besides, in the data set with NIH3T3 cells [1], the “percent of apoptosis induced by 5-FU after transfection” value worked out at 39%. In addition, the anoikis result in the data set with H-Ras/NIH3T3 cells is “enhanced anoikis”. Also, the “cell death induced by lack of attachment (anoikis)” value in the data set on NIH3T3 cells [4] is listed as “significantly higher cell death”. Further, the wound healing entry with NIH3T3 cells [5] is recorded as “inhibited”.

With “RhoA: closely related family member sharing 86% sequence identity with RhoB; wild-type, in HA-tagged pcDNA3, transfected as control”, the “# of foci formed” value with NIH3T3 cells [2] (oncogene transfected: EGFR) stood at 47 ± 7; in the data set with NIH3T3 cells [2] (oncogene transfected: ErbB2), 61 ± 11; in the data set on NIH3T3 cells [2] (oncogene transfected: H-Ras), 63 ± 11; with NIH3T3 cells [2] (oncogene transfected: K-Ras), 71 ± 13; in the data set on NIH3T3 cells [2] (oncogene transfected: N-Ras), 46 ± 8; with NIH3T3 cells [2] (oncogene transfected: v-Src), 35 ± 7. Also, the “# of soft agar colonies” value with NIH3T3 cells [3] (oncogene: H-Ras) was 77 and 77 ± 12; in the data set on NIH3T3 cells [3] (oncogene: K-Ras) it was 65 and 65 ± 7; in the data set on NIH3T3 cells [3] (oncogene: N-Ras), 89 and 89 ± 14. In addition, the growth rate result in the data set with A-549 cells is given as “enhanced the rate of growth”. Besides, the “5-FU apoptotic rate after transfection” value in the data set with NIH3T3 cells [1] is given as “slightly protected”. Further, the “percent of apoptosis induced by 5-FU after transfection” value in the data set with NIH3T3 cells [1] is reported as “no significant effect”. Also, the anoikis result with H-Ras/NIH3T3 cells is listed as “slightly protected from anoikis”. In addition, the “cell death induced by lack of attachment (anoikis)” value in the data set with NIH3T3 cells [4] is “much lower rate of anoikis”. In addition, the wound healing entry in the data set on NIH3T3 cells [5] was “accelerated”.
